Source: ChEMBL document CHEMBL5291721, “A preclinical secondary pharmacology resource illuminates target-adverse drug reaction associations of marketed drugs” (Nat Commun, 2023)

How the values were obtained:
[1] = target: Histamine H1 receptor (Homo sapiens, UniProt P35367); format: functional, cell-based
[2] = target: Sodium channel protein type 5 subunit alpha (Homo sapiens, UniProt Q14524); format: functional, cell-based
[3] = target: T1, Progesterone receptor (Homo sapiens, UniProt P06401)
T1 sequence (P06401 whole entry): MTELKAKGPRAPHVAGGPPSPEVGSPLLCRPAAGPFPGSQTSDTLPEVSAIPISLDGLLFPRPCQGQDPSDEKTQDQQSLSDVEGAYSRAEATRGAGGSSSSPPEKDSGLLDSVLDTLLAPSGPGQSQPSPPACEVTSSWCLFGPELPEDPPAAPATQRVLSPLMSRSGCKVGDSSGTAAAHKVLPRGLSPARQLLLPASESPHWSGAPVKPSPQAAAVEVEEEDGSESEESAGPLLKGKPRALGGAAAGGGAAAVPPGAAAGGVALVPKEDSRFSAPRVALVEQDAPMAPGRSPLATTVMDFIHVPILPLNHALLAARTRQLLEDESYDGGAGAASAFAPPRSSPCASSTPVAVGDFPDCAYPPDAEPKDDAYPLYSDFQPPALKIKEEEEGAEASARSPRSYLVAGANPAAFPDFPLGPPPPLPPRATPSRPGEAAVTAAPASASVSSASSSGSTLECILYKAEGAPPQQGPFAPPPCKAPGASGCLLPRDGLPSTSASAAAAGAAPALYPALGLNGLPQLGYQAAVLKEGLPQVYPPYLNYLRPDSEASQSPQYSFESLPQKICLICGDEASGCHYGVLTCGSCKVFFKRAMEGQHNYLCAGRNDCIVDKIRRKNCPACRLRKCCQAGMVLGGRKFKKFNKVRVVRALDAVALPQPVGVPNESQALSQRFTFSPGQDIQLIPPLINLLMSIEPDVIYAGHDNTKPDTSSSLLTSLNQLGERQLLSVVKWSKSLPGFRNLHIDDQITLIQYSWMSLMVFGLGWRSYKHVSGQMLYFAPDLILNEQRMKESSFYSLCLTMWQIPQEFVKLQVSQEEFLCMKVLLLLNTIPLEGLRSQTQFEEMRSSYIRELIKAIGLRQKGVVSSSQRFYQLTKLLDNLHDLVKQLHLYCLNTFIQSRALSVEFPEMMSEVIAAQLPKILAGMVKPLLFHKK

[4] = target: Estrogen receptor beta (Homo sapiens, UniProt Q92731)
Sequence of Estrogen receptor beta (Q92731 whole entry): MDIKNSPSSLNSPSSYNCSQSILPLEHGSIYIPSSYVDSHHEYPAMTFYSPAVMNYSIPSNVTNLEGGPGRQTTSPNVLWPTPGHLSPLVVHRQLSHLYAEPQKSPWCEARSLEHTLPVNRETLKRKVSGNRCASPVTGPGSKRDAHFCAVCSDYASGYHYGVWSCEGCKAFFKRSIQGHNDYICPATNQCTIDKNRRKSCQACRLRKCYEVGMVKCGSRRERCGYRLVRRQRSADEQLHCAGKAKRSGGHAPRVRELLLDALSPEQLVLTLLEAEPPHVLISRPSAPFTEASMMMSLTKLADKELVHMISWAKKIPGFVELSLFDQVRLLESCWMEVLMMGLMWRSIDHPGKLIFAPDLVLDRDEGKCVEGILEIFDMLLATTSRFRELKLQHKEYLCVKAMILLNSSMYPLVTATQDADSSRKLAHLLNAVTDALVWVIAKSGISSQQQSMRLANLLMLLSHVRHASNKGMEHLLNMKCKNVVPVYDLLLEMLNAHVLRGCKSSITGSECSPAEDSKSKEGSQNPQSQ

[5] = target: Histamine H2 receptor (Homo sapiens, UniProt P25021)
Sequence of Histamine H2 receptor (P25021 whole entry): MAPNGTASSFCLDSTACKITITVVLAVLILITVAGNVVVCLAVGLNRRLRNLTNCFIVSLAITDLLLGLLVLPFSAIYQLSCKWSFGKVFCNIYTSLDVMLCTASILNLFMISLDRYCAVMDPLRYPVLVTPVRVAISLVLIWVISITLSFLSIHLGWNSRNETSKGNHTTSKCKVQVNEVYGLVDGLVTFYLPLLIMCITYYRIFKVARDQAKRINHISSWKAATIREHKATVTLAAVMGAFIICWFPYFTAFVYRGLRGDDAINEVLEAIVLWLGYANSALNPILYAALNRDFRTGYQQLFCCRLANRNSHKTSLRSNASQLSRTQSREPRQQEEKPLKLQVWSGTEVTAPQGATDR

[6] = target: T2, Alpha-1A adrenergic receptor (Homo sapiens, UniProt P35348)
T2 sequence (P35348 whole entry): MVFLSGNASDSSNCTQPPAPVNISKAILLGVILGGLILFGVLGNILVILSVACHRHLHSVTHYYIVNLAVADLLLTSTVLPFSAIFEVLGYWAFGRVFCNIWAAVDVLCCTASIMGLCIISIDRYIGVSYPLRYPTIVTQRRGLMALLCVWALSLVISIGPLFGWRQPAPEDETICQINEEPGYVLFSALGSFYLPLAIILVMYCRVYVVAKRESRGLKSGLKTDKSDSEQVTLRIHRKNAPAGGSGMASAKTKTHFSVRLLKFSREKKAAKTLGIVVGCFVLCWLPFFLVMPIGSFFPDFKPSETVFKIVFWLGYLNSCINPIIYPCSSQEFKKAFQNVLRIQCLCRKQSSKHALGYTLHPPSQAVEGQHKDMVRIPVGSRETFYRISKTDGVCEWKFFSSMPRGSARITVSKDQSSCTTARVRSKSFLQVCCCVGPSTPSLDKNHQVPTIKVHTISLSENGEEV

[7] = target: T3, D(4) dopamine receptor (Homo sapiens, UniProt P21917)
T3 sequence (P21917 whole entry): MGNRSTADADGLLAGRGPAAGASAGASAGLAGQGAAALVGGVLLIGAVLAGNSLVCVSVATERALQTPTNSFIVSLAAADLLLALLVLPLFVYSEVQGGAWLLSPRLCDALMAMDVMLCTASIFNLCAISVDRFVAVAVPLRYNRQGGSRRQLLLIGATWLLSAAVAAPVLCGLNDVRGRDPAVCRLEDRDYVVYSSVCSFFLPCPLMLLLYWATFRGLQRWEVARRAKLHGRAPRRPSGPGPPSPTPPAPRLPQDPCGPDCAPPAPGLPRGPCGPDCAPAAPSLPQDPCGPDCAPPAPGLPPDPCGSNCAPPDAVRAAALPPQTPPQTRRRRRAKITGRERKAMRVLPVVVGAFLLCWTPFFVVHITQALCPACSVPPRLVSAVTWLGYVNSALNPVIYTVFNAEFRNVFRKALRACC

[8] = target: T4, Muscarinic acetylcholine receptor M2 (Homo sapiens, UniProt P08172)
T4 sequence (P08172 whole entry): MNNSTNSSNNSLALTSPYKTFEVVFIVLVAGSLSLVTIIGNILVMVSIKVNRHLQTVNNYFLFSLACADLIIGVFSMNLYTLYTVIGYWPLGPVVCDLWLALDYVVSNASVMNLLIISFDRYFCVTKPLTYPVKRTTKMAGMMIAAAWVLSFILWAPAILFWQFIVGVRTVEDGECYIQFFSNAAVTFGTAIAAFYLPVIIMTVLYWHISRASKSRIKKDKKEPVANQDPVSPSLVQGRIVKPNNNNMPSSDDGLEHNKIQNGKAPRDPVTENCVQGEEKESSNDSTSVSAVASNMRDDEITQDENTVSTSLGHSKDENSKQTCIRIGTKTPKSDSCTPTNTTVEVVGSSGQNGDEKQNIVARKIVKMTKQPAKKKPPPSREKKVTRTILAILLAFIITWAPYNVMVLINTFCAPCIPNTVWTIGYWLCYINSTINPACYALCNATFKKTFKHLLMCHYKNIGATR
Note: assay procedure not described here.

Sequence of Histamine H1 receptor (P35367 whole entry): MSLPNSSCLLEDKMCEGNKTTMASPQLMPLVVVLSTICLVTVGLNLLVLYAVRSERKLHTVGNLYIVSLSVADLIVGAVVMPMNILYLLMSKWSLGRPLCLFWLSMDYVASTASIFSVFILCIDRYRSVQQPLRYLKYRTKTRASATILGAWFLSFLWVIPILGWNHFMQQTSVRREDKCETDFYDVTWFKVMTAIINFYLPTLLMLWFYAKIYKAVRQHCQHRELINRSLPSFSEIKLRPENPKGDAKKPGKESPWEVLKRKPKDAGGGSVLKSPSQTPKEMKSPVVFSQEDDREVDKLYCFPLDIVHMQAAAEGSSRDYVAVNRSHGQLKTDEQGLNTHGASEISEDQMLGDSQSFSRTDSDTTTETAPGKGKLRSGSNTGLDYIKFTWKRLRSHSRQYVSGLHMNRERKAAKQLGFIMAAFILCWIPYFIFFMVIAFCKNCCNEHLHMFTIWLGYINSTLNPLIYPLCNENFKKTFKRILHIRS
Sequence of Sodium channel protein type 5 subunit alpha (Q14524 whole entry): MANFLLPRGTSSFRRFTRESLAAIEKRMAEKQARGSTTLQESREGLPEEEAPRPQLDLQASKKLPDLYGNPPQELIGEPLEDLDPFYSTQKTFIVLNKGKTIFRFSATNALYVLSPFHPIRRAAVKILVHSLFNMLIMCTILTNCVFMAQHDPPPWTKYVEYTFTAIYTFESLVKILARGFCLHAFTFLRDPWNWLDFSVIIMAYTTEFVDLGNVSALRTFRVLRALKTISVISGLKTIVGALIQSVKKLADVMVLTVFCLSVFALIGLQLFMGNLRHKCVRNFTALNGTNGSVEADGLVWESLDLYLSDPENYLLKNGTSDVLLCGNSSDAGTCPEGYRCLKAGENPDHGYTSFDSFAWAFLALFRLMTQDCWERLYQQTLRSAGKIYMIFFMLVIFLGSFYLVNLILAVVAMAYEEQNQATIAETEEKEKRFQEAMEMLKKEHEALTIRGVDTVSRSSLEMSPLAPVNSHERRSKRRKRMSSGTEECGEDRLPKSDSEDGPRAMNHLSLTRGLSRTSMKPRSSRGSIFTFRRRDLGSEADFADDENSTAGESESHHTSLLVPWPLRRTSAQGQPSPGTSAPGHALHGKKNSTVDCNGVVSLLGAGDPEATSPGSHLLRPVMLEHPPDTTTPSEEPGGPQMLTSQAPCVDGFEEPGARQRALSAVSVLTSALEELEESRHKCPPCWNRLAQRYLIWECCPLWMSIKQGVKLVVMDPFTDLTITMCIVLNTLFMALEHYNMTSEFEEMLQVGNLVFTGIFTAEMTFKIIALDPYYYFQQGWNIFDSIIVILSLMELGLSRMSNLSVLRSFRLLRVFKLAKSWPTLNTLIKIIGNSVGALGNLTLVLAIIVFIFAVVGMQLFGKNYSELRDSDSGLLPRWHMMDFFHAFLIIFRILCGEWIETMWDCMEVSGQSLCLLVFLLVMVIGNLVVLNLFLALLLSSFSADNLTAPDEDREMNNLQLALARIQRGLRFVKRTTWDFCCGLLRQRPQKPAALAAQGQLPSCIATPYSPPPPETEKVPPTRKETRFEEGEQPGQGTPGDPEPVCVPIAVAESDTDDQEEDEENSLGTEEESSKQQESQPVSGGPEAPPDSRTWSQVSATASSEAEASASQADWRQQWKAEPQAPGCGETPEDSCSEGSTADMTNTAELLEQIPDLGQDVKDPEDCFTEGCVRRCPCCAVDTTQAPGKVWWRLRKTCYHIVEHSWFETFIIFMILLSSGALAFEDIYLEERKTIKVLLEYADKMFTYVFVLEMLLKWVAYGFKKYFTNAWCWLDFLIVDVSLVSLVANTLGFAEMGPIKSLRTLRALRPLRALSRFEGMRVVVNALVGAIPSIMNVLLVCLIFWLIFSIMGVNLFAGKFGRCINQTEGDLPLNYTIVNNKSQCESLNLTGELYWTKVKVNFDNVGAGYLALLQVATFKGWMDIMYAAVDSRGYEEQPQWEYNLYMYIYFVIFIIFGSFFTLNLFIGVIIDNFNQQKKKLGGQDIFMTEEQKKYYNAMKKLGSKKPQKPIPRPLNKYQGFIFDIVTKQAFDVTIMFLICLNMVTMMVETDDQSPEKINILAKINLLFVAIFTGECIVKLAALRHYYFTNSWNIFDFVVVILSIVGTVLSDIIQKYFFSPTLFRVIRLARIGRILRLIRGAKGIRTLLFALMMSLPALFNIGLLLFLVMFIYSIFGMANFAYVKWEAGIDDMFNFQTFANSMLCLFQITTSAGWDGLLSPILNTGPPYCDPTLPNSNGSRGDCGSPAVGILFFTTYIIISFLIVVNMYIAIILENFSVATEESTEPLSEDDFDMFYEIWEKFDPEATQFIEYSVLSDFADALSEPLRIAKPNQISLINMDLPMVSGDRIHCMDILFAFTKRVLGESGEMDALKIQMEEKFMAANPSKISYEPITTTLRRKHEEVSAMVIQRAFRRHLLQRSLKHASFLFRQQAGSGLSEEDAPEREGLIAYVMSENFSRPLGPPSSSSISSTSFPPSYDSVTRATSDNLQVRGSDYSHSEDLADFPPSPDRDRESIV

Compound	AC50 [1] [µM]	AC50 [2] [µM]	AC50 [3] [µM]	AC50 [4] [µM]	AC50 [5] [µM]	AC50 [6] [µM]	AC50 [7] [µM]	AC50 [8] [µM]
CCN(CC)CCCN(c1ccccc1)C1Cc2ccccc2C1 [APRINDINE]	> 30	–	–	–	–	–	–	–
CCCCCCOC(=O)NC(=N)c1ccc(NCc2nc3cc(C(=O)N(CCC(=O)OCC)c4ccccn4)ccc3n2C)cc1 [DABIGATRAN ETEXILATE]	–	3	–	–	–	–	–	–
N=C(N)NC(=O)Cc1c(Cl)cccc1Cl [GUANFACINE]	–	–	> 30	–	–	–	–	–
O=C(O)c1nn(Cc2ccc(Cl)cc2Cl)c2ccccc12 [LONIDAMINE]	> 30	–	–	–	–	–	–	–
CS(=O)(=O)NC(=O)CCC/C=C\C[C@H]1C(=O)C[C@@H](O)[C@@H]1/C=C/[C@@H](O)COc1ccccc1 [SULPROSTONE]	> 30	–	–	–	–	–	–	–
CCN(CC)CC(=O)Nc1c(C)cccc1C [LIDOCAINE]	–	–	> 30	> 30	–	–	–	–
O=C(O)c1ccc2nc(-c3cc(Cl)cc(Cl)c3)oc2c1	–	> 30	–	–	–	–	–	–
CN1C(=O)CN=C(c2ccccc2F)c2cc([N+](=O)[O-])ccc21 [FLUNITRAZEPAM]	–	–	> 10	> 30	> 10	> 10	> 10	> 10
CN1CCC(=C2c3ccccc3CC(=O)c3sccc32)CC1 [KETOTIFEN]	–	–	–	–	–	–	–	0.432
Oc1cc(O)c2c(c1)O[C@H](c1ccc(O)c(O)c1)[C@@H](O)C2 [CIANIDANOL]	> 30	–	> 30	> 30	> 10	–	–	> 10
O=C(O[C@H]1C[N+]2(CCCOc3ccccc3)CCC1CC2)C(O)(c1cccs1)c1cccs1 [ACLIDINIUM BROMIDE]	–	–	> 30	–	> 10	5.1	> 10	–
O=C1CN=C(c2ccccc2Cl)c2cc([N+](=O)[O-])ccc2N1 [CLONAZEPAM]	–	–	> 30	> 30	> 10	> 10	> 10	> 10
CCCCCCCC(=O)CC[C@@H]1[C@@H](C/C=C\CCCC(=O)O)[C@@H](O)C[C@H]1O [UNOPROSTONE]	> 30	> 50	–	–	–	–	–	–
CC1NCCOC1c1ccccc1 (stereo unspecified) [PHENMETRAZINE]	> 30	–	> 30	> 30	–	–	–	> 10
Cc1ccc(-c2ncc(Cl)cc2-c2ccc(S(C)(=O)=O)cc2)cn1 [ETORICOXIB]	> 30	–	> 30	> 30	> 10	> 10	> 10	> 10
Cc1cnc(Nc2ccc(OCCN3CCCC3)cc2)nc1Nc1cccc(S(=O)(=O)NC(C)(C)C)c1 [FEDRATINIB]	–	7.7	> 30	–	–	–	–	–
CC(C)(N)Cc1ccccc1 [PHENTERMINE]	–	–	> 30	> 30	–	–	–	> 10

Compound	AC50 [1] [µM]	AC50 [2] [µM]	AC50 [3] [µM]	AC50 [4] [µM]	AC50 [5] [µM]	AC50 [6] [µM]	AC50 [7] [µM]	AC50 [8] [µM]
OCCN(CCO)c1nc(N2CCCCC2)c2nc(N(CCO)CCO)nc(N3CCCCC3)c2n1 [DIPYRIDAMOLE]	–	–	> 30	–	–	–	–	–
Cc1nnc2n1-c1ccc(Cl)cc1C(c1ccccc1)=NC2 [ALPRAZOLAM]	–	–	> 30	> 30	> 10	–	> 10	> 10
CCOC(=O)C1=C(C)NC(C)=C(C(=O)OC)C1c1cccc(Cl)c1Cl (stereo unspecified) [FELODIPINE]	–	–	2.6	> 30	> 10	> 10	> 10	> 10
TEPRENONE	–	–	> 30	–	–	–	–	–
COc1ccc2c3c1O[C@H]1C(=O)CC[C@H]4[C@@H](C2)N(C)CC[C@]314 [HYDROCODONE]	–	> 50	> 30	> 30	> 10	> 10	> 10	> 10
COc1ccc(-n2nc(C(N)=O)c3c2C(=O)N(c2ccc(N4CCCCC4=O)cc2)CC3)cc1 [APIXABAN]	–	> 50	–	–	–	–	–	–
CN(C)CCOC(=O)C(c1ccccc1)C1(O)CCCC1 (stereo unspecified) [CYCLOPENTOLATE]	–	–	–	–	–	–	–	0.624
CN1C2CCCC1CC(NC(=O)c1nn(C)c3ccccc13)C2 (stereo unspecified) [GRANISETRON]	–	> 30	> 30	> 30	> 10	> 10	> 10	> 10
CCN(CC)C(C)C(=O)c1ccccc1 (stereo unspecified) [DIETHYLPROPION]	–	–	0.22	–	> 10	–	–	> 10
COc1ccc(C(Cl)=C(c2ccc(OC)cc2)c2ccc(OC)cc2)cc1 [CHLOROTRIANISENE]	> 30	–	–	–	–	–	–	–
COC(=O)c1ccc2c(c1)NC(=O)/C2=C(\Nc1ccc(N(C)C(=O)CN2CCN(C)CC2)cc1)c1ccccc1 [NINTEDANIB]	–	13	–	–	–	–	–	–
Nc1cc(N2CCCCC2)nc(N)[n+]1[O-] [MINOXIDIL]	–	–	> 30	–	–	–	–	–
CC(NC(C)(C)C)C(=O)c1cccc(Cl)c1 (stereo unspecified) [BUPROPION]	–	> 30	> 30	> 30	> 10	> 10	> 10	> 10
NS(=O)(=O)c1ccc(N2CCCCS2(=O)=O)cc1	> 30	–	–	–	–	–	–	–
CCC(=O)O[C@H](CC(=O)O)C[N+](C)(C)C [LEVOCARNITINE PROPIONATE]	> 30	–	–	–	–	–	–	–
CC1=C(CC(=O)O)c2cc(F)ccc2/C1=C\c1ccc([S+](C)[O-])cc1 (stereo unspecified)	–	–	> 30	> 30	> 10	–	–	> 10
